Measured values reported in patent publication US20090275667A1, “USE OF ALLICIN AS PRESERVATIVE, AS DISINFECTANT, AS ANTIMICROBIAL OR AS BIOCIDAL AGENT” (Stone Island Holdings Ltd, priority 2003, published 2009).

Assays:
chickens = experiment: In vivo trial of allicin in the drinking water of chickens, two sheds
Protocol: An in vivo trial has also been conducted in which two adjacent sheds each of 10,000 chickens were compared. Each shed was supplied with 1000 litres of water per day. For 7 days, the water for one shed had 1.5 litres of allicin solution (1000 ppm) added to the water supply, with 1 litre of allicin solution (1000 ppm) being added per day for a further 3 days. In the control shed, no allicin solution was added.
After just a few days, an improvement in the appearance of the health of the chickens in the allicin-treated shed was noted. For example, the combs of the chickens appeared redder and there was an increase of 2 percent in egg production. The vitality of the chickens improved. In contrast, in the control barn, E. coli infection was observed. Following completion of the trial, the livers of several of the birds were examined.

[1] = test system: E. coli and Salmonella growth; experiment: Preservation of hamburger meat samples against bacterial growth; assay type: cell-based; conditions: for time bacterial overgrowth prevented: 10 kg hamburger meat
Excerpt: A range of concentrations of liquid allicin (0 ppm to 500 ppm) was applied to 10 kg samples of hamburger meat to determine how long bacterial growth could be prevented. These tests were compared to the normal use of existing preservatives (including nitrates and phosphates).
To test for bacterial growth, small samples of meat were cut from the test piece of meat and, using standard methods of analysis, were checked for E. coli and Salmonella growth.

P. l. pulvifaciens = experiment: Minimum bactericidal concentration by plating out MIC cultures; assay type: cell-based, Paenibacillus larvae subsp. pulvifaciens; conditions: range of 1000 ppm to 25 ppm
Protocol: Positive controls contained the antibiotic Tylosin (Tylan® 50, Elanco Animal Health Inc., IN) and negative controls contained no antibiotics. Bacterial (P. l. larvae, P. l. pulviphaciens) or fungal (A. apis, A. aggregata) spores (100 μl of approximately 10^8-10^9 spores/ml) were added to a 2.5 ml of bacterial or fungal liquid medium containing serial dilutions of allicin. Cultures were incubated in a shaker at 35° C. and 215 rpm. The optical densities of cultures (OD 600) were recorded 24 h and 48 h post inoculation, depending on the growth rate of the microbial species. […] Minimum bactericidal concentration values (NBC) were determined for allicin by plating out 100 μl of bacterial cultures derived from the MIC assay. Plates were incubated 24 h and 48 h at 33° C. and 6% CO2 to observe microbial growth.

Paenibacillus alvei = experiment: Inhibition of bacterial growth in broth by Allicin (Study 2); assay type: cell-based; parameters: key: +: Growth present; +^a: weak growth seen, occurred later than lower concentrations; conditions: 34° C.
Protocol: (§1) Allicin liquid (nominal concentration=1000 ppm. ai) was obtained from Allicin International Ltd and kept refrigerated.
(§2) The bacteria tested were Paenibacillus larvae subsp. larvae, Melissococcus plutonium, Brevibacillus laterosporus and Paenibacillus alvei. All isolates were freshly isolated from diseased material sent to the NBU diagnostic laboratory.
(§3) P. larvae subsp. larvae, B. laterosporus and P. alvei were grown on brain heart infusion plus thiamine (BHIT) agar and broth (SOP NBU/014) under aerobic conditions and M. plutonius was grown on SYPG agar and broth (SOP NBU/015) under anaerobic conditions. All experiments were carried out at 34° C. The concentrations of Allicin liquid investigated were 500, 250, 100, 50, 25 and 10 ppm. Broth was made up at twice the usual concentration, so that when the Allicin-containing component was added, the medium was at the correct strength for bacterial growth. Allicin solution was diluted in sterile deionised water to give the desired concentration when added to autoclaved broth. […] Further controls were included, which were the media plus an appropriate volume of Allicin, but not inoculated with bacteria. This would indicate if there were any bacteria present in the test item that may influence the results seen. Both aerobic and anaerobic controls were included.
(§4) Bacteria were isolated from diseased samples and subcultured on agar plates until pure, when they were inoculated into broth cultures. Cultures of M. plutonius were isolated anaerobically, then plated out and incubated both aerobically and anaerobically, to confirm that the isolate investigated was this bacterium. A similar microbe, Enterococcus faecalis, can sometimes be isolated from EFB-infected samples and is morphologically difficult to distinguish from M. plutonius. However, the former bacterium grows very well aerobically, whereas M. plutonius is unable to replicate. Thus, if an isolate is able to grow aerobically, it is not M. plutonius. This control mechanism was used throughout the experimental procedures to ensure that the correct organism was tested.
(§5) Each bacterium was freshly grown in a test tube containing 5 ml broth. A loopful (5 μl) of this bacterial suspension was removed from the culture and inoculated into each test tube according to SOP NBU/131. The same inoculum source for each strain was used for all Allicin dilutions, and all experiments were done in triplicate.
(§6) Where growth occurred in the presence of Allicin, one replicate from each concentration for each bacterium was plated out on the appropriate agar to identify the bacteria that had grown in the broth, to confirm the results (SOP NBU/131). Once growth was evident on this confirmation plate, the culture was assessed with respect to the colony morphology and Gram stained (according to SOP NBU/111) as a further confirmatory test. This is a suitable method as each bacterium tested has distinctive morphology both macro- and microscopically.

Melissococcus plutonius = experiment: as above; assay type: cell-based; parameters: key: +: Growth present; +^a: weak growth seen, occurred later than lower concentrations; conditions: 34° C.
Protocol: as §1, §2, §3, §4, §5, §6

[2] = test system: Paenibacillus larvae subsp. larvae; experiment: as above; assay type: cell-based; parameters: key: +: Growth present; +^a: weak growth seen, occurred later than lower concentrations; conditions: 34° C.
Protocol: as §1, §2, §3, §4, §5, §6

[3] = test system: Brevibacillus laterosporus; experiment: as above; assay type: cell-based; parameters: key: +: Growth present; +^a: weak growth seen, occurred later than lower concentrations; conditions: 34° C.
Protocol: as §1, §2, §3, §4, §5, §6

C=CCS[S+]([O-])CC=C (stereo not shown) [allicin, Allicin]
increase in egg production (chickens; allicin solution (1000 ppm) 1.5 litres/day in 1000 litres water for 7 days, then 1 litre/day for 3 days, vs control shed): 2%
resistance to chicken bloodlice (chickens; allicin-treated shed vs control shed): improved resistance
evidence of E. coli infection in livers (chickens; livers examined after completion of the trial, vs control chickens): did not
time bacterial overgrowth prevented ([1]; 250 ppm): up to 7 days
time bacterial overgrowth prevented ([1]; 375 ppm): up to 10 days
time bacterial overgrowth prevented ([1]; 500 ppm): up to 14 days
allicin concentration demonstrating prevention of growth of E. coli and Salmonella ([1]; meat, equivalent to 0.0250% w/v): 250 ppm
bacteriostatic or bactericidal activity (P. l. pulvifaciens): only bacteriostatic (no bactericidal) activity
Growth present at test item concentration (Paenibacillus alvei; 10 ppm): +
Growth present at test item concentration (Paenibacillus alvei; 25 ppm): +
Growth present at test item concentration (Paenibacillus alvei; 50 ppm): +
Growth present at test item concentration (Paenibacillus alvei; 100 ppm): +^a
Growth present at test item concentration (Melissococcus plutonius; 10 ppm): +
Growth present at test item concentration (Melissococcus plutonius; 25 ppm): +
Growth present at test item concentration (Melissococcus plutonius; 50 ppm): +
Growth present at test item concentration (Melissococcus plutonius; 100 ppm): +^a
Growth present at test item concentration ([2]; 10 ppm): +
Growth present at test item concentration ([2]; 25 ppm): +^a
Growth present at test item concentration ([3]; 10 ppm): +
Growth present at test item concentration ([3]; 25 ppm): +
Growth present at test item concentration ([3]; 50 ppm): +
Growth present at test item concentration ([3]; 100 ppm): +^a
